Data reported in patent publication US7582652B2, “Kinase inhibitors” (Eli Lilly and Company, priority 2004, dated 2009).

Legend:
[1] = system: collagen induced arthritis (ankle diameter); test: Rat collagen induced arthritis efficacy model; type: in vivo, female Lewis rats; details: PO bid x 14 days, AUC of composite inflammation scores
Procedure: Rat Collagen Induced Arthritis Efficacy Model
Female Lewis rats (≅190 g, Charles River Labs) are immunized with Bovine type II collagen (2 mg/mL) emulsified with an equal volume of adjuvant (aluminum hydroxide). […]. The rats are immunized with approximately […] of the emulsion intradermally on the back near the base of the tail. All animals are re-immunized 7 days later according to the same protocol. The rats begin to develop arthritis (characterized by swelling and redness of one or both ankles) from 12 to 14 days after the first immunization. The rats are equally distributed into five treatment groups at the first signs of arthritis and treatment is initiated with each rat dosed bid for 14 days.
Ankle diameter is measured with calipers 5 days a week and recorded. Data is expressed as the area under the curve (AUC) generated from the composite inflammation scores and statistical analysis performed.

[2] = system: TNF-α production in mouse peritoneal macrophages; test: Inhibition of TNF-α in vitro (mouse peritoneal macrophages, LPS/interferon-γ, Luminex); type: cell-based; details: suppression of TNF-α; macrophages treated with 50 ng/mL LPS and 10 U/mL interferon-γ for 18 h
Procedure: Mouse Peritoneal Macrophages
1 mL thioglycolate broth (5.0 g yeast extract, 15.0 g casitone or trypticase, 5.0 g dextrose, 2.5 g sodium chloride, 0.75 g L-cystine, 0.5 g sodium thioglycolate, 1.0 mg resazurin, and 0.75 g agar in 1.0 L distilled water) is injected into the peritoneal cavity of Balb/C female mice. At day 4 or 5 post-injection the mice are sacrificed and then injected i.p. with 4 mL RPMI-1640 medium (BioWhittaker) and the peritoneal macrophages are withdrawn by syringe.
Mouse peritoneal microphages are counted with a hemocytometer and adjusted to 5×10^5 cells/well in 96-well plates in RPMI-1640 medium with 10% fetal bovine serum. 200 μL/well is plated in 96-well plates and the cells allowed to settle and adhere to the bottom of the well for at least 3 h. The test compound or standard p38 kinase inhibitor is pre-treated using a series of 8 concentrations for 1 h at 37° C. (20 μL/well). The cells are treated with a mixture of 50 ng/mL lipopolysaccharide (LPS) and 10 U/mL interferon-γ for 18 h at 37° C. (20 μL/well). The conditioned media is harvested and assayed for TNF-α production using the Luminex procedure.
TNF-α/Luminex Detection Assay (Bio-Rad Bio-Plex Kit—Catalog #171-G12221)
The lyophilized premixed TNF-α standard (1 standard tube/two 96-well plates) is reconstituted with 50 μL sterile water (500,000 pg/mL). The samples are vortexed for 5 seconds, incubated on ice for 30 min, and vortexed for 5 seconds before use. A set of twelve 1.5 mL tubes are labeled with #1-thru #12 and then the amounts of cell media shown below added to the appropriate tubes (standard concentrations are as follows: 50,000; 25,000; 12,500; 6,250; 3,125; 1,562.5; 781.3; 390.6; 195.3; 97.7; 48.8; and 24.4 pg/mL). The premixed anti-cytokine conjugated beads are vortexed (25×) vigorously for 30 seconds. The anti-cytokine conjugated beads are diluted to a 1× concentration using 1× Bio-Plex Assay Buffer. For every plate, 240 μL of the pre-mixed beads is added to 5760 μL of Bio-Plex Assay Buffer. A Millipore 96-well filter plate is blocked with 100 μL/well of blocking buffer. The blocking buffer is filtered through using a Millipore filtration system and then toweled dry. 2 washes are performed on the filter plate with 100 μL/well of Bio-Plex Assay Buffer and toweled dry. The 1× anti-cytokine conjugated beads are vortexed for 15 seconds and added 50 μL to each well. This is filtered through and toweled dry. 2 washes are performed on plates with 100 μl/well of Bio-Plex Wash Buffer. Again, it is filtered through and toweled dry. 50 μL of sample or standard is added to each sample well. This is incubated for 60 seconds at RT on a shaker protected from light at setting 6 and then for 30 min at setting 3 and then placed in the refrigerator overnight. 3 washes are performed with Bio-Plex Wash Buffer. Filter through and toweled dry. The cytokine detection antibody is prepared (˜10 min prior to use) for every plate and 60 μL of the premixed cytokine detection antibody stock is added to 5940 μL of Bio-Plex Detection Antibody Diluent. 50 μL of cytokine detection antibody is added and incubated for 60 seconds at RT on a shaker protected from light at setting 6 and then for 30 min at setting 3.3 washes are performed with the Bio-Plex Wash Buffer. This is filtered through and toweled dry. Strept-PE (˜10 minutes prior to use) is prepared for every plate and 60 μL to 5940 μL of Bio-Plex Assay Buffer added. 50 μL of Streptavidin-PE is added to each well and incubated for 60 seconds at RT on a shaker protected from light at setting 6 and then for 10 min at setting 3. 3 washes are performed with Bio-Plex Wash-Buffer. This is filtered through. The beads are re-suspended in 100 μL/well of Bio-Plex Assay Buffer. Standards and samples are read on a Luminex machine. […]

SMILES: CC(C)(C)Cn1c(N)nc2ccc(-c3nc(C(C)(C)C)[nH]c3-c3ccc(F)cc3)nc21.CS(=O)(=O)O.CS(=O)(=O)O [EXAMPLE 104, Crystalline 5-[2-tert-Butyl-5-(4-fluoro-phenyl)-1H-imidazol-4-yl]-3-(2,2-dimethyl-propyl)-3H-imidazo[4,5-b]pyridin-2-ylamine dimethanesulfonate]
- TMED50 [1]: 1.5 mg/kg (b.i.d.)
- IC50 [2]: 6.3 nM
